# Measurements published in patent US20250296960A1, “PEPTIDE COMPOSITIONS AND METHODS OF USE THEREOF” (priority 2022, published 2025).
# “Also recorded” adds a separate entry of the source. Where two headings read alike, the source gives them in different places. Numbered stars: 1 amine (or outer) side, 2 acyl side, 3 side chain; on linkers, the order of the positions; unused ones are H or OH. Square brackets hold non-standard residues; d marks the D form. Side chains are listed from the residue outwards. Peptide text beside a SMILES is read from it. * marks the point of attachment. C18 diacid = O=C(O)CCCCCCCCCCCCCCCCC(=O)*; γGlu = O=C(O)[C@H](CCC(=O)[*:2])N[*:1]; αMeR = C[C@](N)(CCCNC(=N)N)C(=O)O; AEEA = NCCOCCOCC(=O)O; Aib = CC(C)(N)C(=O)O
# Tests used:
# human GIPR = molecular target: T1, human GIPR (Homo sapiens, UniProt P48546); experiment: cAMP assay (HitHunter cAMP) in GIPR-expressing CHO-K1 cells (GIPR+ cells); type: cell-based; conditions: for activity on GIPR compared to SEQ ID NO. 77, in words: Example 13; for Ratio vs. GLP-1R, GIPR / Relative % to native ligand, GIPR: Table 36
# T1 construct: host or cells: CHO-K1
# T1 sequence (P48546 22-466): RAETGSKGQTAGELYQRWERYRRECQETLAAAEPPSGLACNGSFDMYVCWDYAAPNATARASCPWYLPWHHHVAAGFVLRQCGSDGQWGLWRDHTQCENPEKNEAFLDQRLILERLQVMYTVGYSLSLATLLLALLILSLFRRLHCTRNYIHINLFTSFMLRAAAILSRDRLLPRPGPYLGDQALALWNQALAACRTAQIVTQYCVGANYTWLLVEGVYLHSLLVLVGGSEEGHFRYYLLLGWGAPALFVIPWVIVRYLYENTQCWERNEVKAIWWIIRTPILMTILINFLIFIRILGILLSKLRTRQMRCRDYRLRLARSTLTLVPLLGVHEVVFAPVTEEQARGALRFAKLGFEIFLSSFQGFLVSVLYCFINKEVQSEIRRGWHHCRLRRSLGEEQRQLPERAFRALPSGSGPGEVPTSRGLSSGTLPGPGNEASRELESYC
# Method in brief: (§1)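 CHO-K1 cells expressing each receptor were plated overnight, then treated with peptide in cAMP assay buffer for 30 min at 37 °C. cAMP was detected by antibody plus detection solution (1 h) and Solution A (3 h), both at room temperature in the dark. Luminescence was the read-out.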
# human GLP-1R = molecular target: T2, human GLP-1R (Homo sapiens, UniProt P43220); experiment: cAMP assay (HitHunter cAMP) in GLP-1R-expressing CHO-K1 cells (GLP-1R+ cells); type: cell-based; conditions: for activity on GLP-1R compared to SEQ ID NO. 77, in words: Example 13; for Ratio vs. GLP-1R, GLP-1R / Relative % to native ligand, GLP-1R: Table 36
# T2 construct: host or cells: CHO-K1
# T2 sequence (P43220 24-463): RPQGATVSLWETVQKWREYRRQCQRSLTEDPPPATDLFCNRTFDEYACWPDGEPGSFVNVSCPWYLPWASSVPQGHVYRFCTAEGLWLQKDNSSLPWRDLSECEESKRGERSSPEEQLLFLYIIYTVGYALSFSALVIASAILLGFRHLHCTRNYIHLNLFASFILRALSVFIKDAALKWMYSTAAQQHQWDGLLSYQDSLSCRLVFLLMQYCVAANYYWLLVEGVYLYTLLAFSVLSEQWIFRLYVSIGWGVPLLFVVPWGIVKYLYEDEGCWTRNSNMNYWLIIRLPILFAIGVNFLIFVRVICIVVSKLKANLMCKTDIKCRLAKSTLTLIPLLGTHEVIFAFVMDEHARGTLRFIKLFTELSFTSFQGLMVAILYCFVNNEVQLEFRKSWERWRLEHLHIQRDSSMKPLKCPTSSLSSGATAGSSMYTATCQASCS
# Method in brief: as §1
# [1] = type: in vitro ADME; conditions: pH 7.8
# Procedure: (§2) For the stability against trypsin, the test samples were prepared by mixing stock solutions of peptide and trypsin dissolved in 50 mM PBS (pH 7.8) containing 0.02% PS80 in a weight ratio of 10:1. The test samples were incubated at 37° C. for 180 min. The sampling from test samples was proceeded at the predetermined time points (10, 30, 60, 90, 120, and 180 min) and stopped by 10% TFA solution.
# (§3) Analytical HPLC was performed to determine the remaining amount on an ACQUITY Premier system (Waters, USA) with an ACQUITY CSH C18 column (Waters, USA) at 35° C. using 0.1% TFA in water and acetonitrile. The remaining amount was determined as a percentage of the peak area at the sampling time point relative to the peak area of the initial sample.
# trypsin = type: in vitro ADME
# Procedure: as §2, §3
# human GCGR = molecular target: T3, human GCGR (Homo sapiens, UniProt P47871); experiment: cAMP assay (HitHunter cAMP) in GCGR-expressing CHO-K1 cells (GCGR+ cells); type: cell-based; conditions: Table 36
# T3 construct: host or cells: CHO-K1
# T3 sequence (P47871 26-477): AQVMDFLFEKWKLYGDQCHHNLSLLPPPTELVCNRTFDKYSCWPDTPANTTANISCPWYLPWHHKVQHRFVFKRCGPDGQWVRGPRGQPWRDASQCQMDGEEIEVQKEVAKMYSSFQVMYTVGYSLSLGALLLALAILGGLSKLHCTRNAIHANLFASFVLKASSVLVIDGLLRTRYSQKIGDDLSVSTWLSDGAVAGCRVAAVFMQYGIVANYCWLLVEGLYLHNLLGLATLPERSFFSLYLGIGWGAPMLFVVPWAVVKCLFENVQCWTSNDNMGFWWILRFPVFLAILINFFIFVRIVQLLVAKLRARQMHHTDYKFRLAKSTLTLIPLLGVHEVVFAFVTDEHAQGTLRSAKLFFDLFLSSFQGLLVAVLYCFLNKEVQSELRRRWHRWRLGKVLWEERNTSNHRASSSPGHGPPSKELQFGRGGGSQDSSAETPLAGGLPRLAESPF
# Method in brief: as §1
# [2] = In vitro enzymatic stability against FaSSIF/P (pancreatin in FaSSIF, pH 6.5); type: in vitro ADME; conditions: simulated gi fluid, pH 6.5, Half-life (min), FaSSIF/P
# [3] = molecular target: human glucose-dependent insulinotropic polypeptide receptor (GIPR), expressed on CHO-K1 cells (human) (UniProt P48546); experiment: cell-based or functional assay
# [4] = molecular target: human glucose-dependent insulinotropic polypeptide receptor (GIPR), expressed on CHO-K1 cells (human) (UniProt P48546); experiment: cell-based or functional assay; remark: listed apart in the source
# [5] = In vivo efficacy in CDA-HFD (NASH) mice, 4 weeks; conditions: Example 16
# Procedure: This study was conducted to evaluate the efficacy of SEQ ID NOs. […] SEQ ID NOs. The peptides were delivered at 0.02% PS80 in PBS and dosing volume was 10 mL/kg. Control group was administered by vehicle without peptide.
# Body weight changes were monitored Q2D; serum chemistry (end); hepatic TG (end); and histological analysis (end). […]
# [6] = In vivo efficacy in mAMLN (obese and NASH) mice, 4 weeks; conditions: after 4 weeks
# FaSSIF/P = experiment: In vitro enzymatic stability against FaSSIF/P (pancreatin in FaSSIF, pH 6.5); type: in vitro ADME
Compound,"activity on GIPR compared to SEQ ID NO. 77, in words (human GIPR)","Ratio vs. GLP-1R, GIPR (human GIPR)","Relative % to native ligand, GIPR (human GIPR)","activity on GLP-1R compared to SEQ ID NO. 77, in words (human GLP-1R)","Ratio vs. GLP-1R, GLP-1R (human GLP-1R)","Relative % to native ligand, GLP-1R (human GLP-1R)",half-life [1],"stability against trypsin compared with SEQ ID NO. 77, in words (trypsin)","Ratio vs. GLP-1R, GCGR (human GCGR)","Relative % to native ligand, GCGR (human GCGR)",half-life [2],other results
CSCC[C@H](NC(=O)[C@H](Cc1ccc(O)cc1)NC(=O)[C@H](CC(=O)O)NC(=O)[C@H](CC(C)C)NC(=O)[C@H](CC(C)C)NC(=O)[C@H](CCCCNC(=O)COCCOCCNC(=O)COCCOCCNC(=O)CC[C@H](NC(=O)CCCCCCCCCCCCCCCCC(=O)O)C(=O)O)NC(=O)[C@H](CO)NC(=O)[C@H](Cc1ccc(O)cc1)NC(=O)[C@H](CC(=O)O)NC(=O)[C@H](CO)NC(=O)[C@@H](NC(=O)[C@H](Cc1ccccc1)NC(=O)[C@@H](NC(=O)CNC(=O)[C@H](CCC(N)=O)NC(=O)C(C)(C)NC(=O)[C@@H](N)Cc1ccc(O)cc1)[C@@H](C)O)[C@@H](C)O)C(=O)N[C@@H](CCSC)C(=O)N[C@@H](CCC(N)=O)C(=O)N[C@@H](CCC(N)=O)C(=O)N[C@@H](CC(=O)O)C(=O)N[C@@H](Cc1ccccc1)C(=O)N[C@H](C(=O)N[C@@H](CCC(N)=O)C(=O)N[C@@H](Cc1c[nH]c2ccccc12)C(=O)N[C@@H](CC(C)C)C(=O)N[C@@H](CC(C)C)C(=O)N[C@@H](CCC(=O)O)C(=O)NCC(=O)NCC(=O)N1CCC[C@H]1C(=O)N[C@@H](CO)C(=O)N[C@@H](CO)C(=O)NCC(=O)N[C@@H](C)C(=O)N1CCC[C@H]1C(=O)N1CCC[C@H]1C(=O)N1CCC[C@H]1C(=O)N[C@@H](CO)C(N)=O)C(C)C [compound 100] (H-Y[Aib]QGTFTSDYSK([AEEA-AEEA-γGlu-C18 diacid])LLDYMMQQDFVQWLLEGGPSSGAPPPS-NH2; N-terminus assumed),decreased,103,55%,decreased,100,54%,> 7.23 h,increased half-lives,56,30%,0.753 h,–
CSCC[C@H](NC(=O)[C@H](Cc1ccc(O)cc1)NC(=O)[C@H](CC(=O)O)NC(=O)[C@H](CC(C)C)NC(=O)[C@H](CC(C)C)NC(=O)[C@H](CCCCNC(=O)COCCOCCNC(=O)COCCOCCNC(=O)CC[C@H](NC(=O)CCCCCCCCCCCCCCCCC(=O)O)C(=O)O)NC(=O)[C@H](CO)NC(=O)[C@H](Cc1ccc(O)cc1)NC(=O)[C@H](CC(=O)O)NC(=O)[C@H](CO)NC(=O)[C@@H](NC(=O)[C@H](Cc1ccccc1)NC(=O)[C@@H](NC(=O)CNC(=O)[C@H](CCC(N)=O)NC(=O)C(C)(C)NC(=O)[C@@H](N)Cc1ccc(O)cc1)[C@@H](C)O)[C@@H](C)O)C(=O)N[C@@H](CCSC)C(=O)N[C@@H](CCC(N)=O)C(=O)N[C@@H](Cc1c[nH]cn1)C(=O)N[C@@H](CC(=O)O)C(=O)N[C@@H](Cc1ccccc1)C(=O)N[C@H](C(=O)N[C@@H](CCC(N)=O)C(=O)N[C@@H](Cc1c[nH]c2ccccc12)C(=O)N[C@@H](CC(C)C)C(=O)N[C@@H](CC(C)C)C(=O)N[C@@H](CCC(=O)O)C(=O)NCC(=O)NCC(=O)N1CCC[C@H]1C(=O)N[C@@H](CO)C(=O)N[C@@H](CO)C(=O)NCC(=O)N[C@@H](C)C(=O)N1CCC[C@H]1C(=O)N1CCC[C@H]1C(=O)N1CCC[C@H]1C(=O)N[C@@H](CO)C(N)=O)C(C)C [compound 99] (H-Y[Aib]QGTFTSDYSK([AEEA-AEEA-γGlu-C18 diacid])LLDYMMQHDFVQWLLEGGPSSGAPPPS-NH2; N-terminus assumed),–,3237,1132%,slightly decreased,100,35%,> 7.23 h,increased half-lives,80,28%,0.632 h,–
GIP (native ligand) (from UniProt P09681 52-93),–,–,–,–,–,–,–,–,–,–,–,"EC50 (nM), cAMP assay [3]: 2.03 nM; EC50 (nM), cAMP assay [4]: 0.732 nM; EC50, c-AMP release (FIG. 8C) [4]: 0.24 nM; EC50, c-AMP release (FIG. 9C) [4]: 0.24 nM; EC50, cAMP release (FIG. 7C) [4]: 1.78 nM; Percentage change in EC50 relative to GIP at human GIPR (%) [4]: 100%"
CSCC[C@H](NC(=O)[C@H](Cc1ccc(O)cc1)NC(=O)[C@H](CC(=O)O)NC(=O)[C@H](CC(C)C)NC(=O)[C@H](CC(C)C)NC(=O)[C@H](CCCCNC(=O)COCCOCCNC(=O)COCCOCCNC(=O)CC[C@H](NC(=O)CCCCCCCCCCCCCCCCC(=O)O)C(=O)O)NC(=O)[C@H](CO)NC(=O)[C@H](Cc1ccc(O)cc1)NC(=O)[C@H](CC(=O)O)NC(=O)[C@H](CO)NC(=O)[C@@H](NC(=O)[C@H](Cc1ccccc1)NC(=O)[C@@H](NC(=O)CNC(=O)[C@H](CCC(N)=O)NC(=O)C(C)(C)NC(=O)[C@@H](N)Cc1ccc(O)cc1)[C@@H](C)O)[C@@H](C)O)C(=O)N[C@@H](CCSC)C(=O)N[C@@H](CCC(N)=O)C(=O)N[C@@](C)(CCCNC(=N)N)C(=O)N[C@@H](CC(=O)O)C(=O)N[C@@H](Cc1ccccc1)C(=O)N[C@H](C(=O)N[C@@H](CCC(N)=O)C(=O)N[C@@H](Cc1c[nH]c2ccccc12)C(=O)N[C@@H](CC(C)C)C(=O)N[C@@H](CC(C)C)C(=O)N[C@@H](CCC(=O)O)C(=O)NCC(=O)NCC(=O)N1CCC[C@H]1C(=O)N[C@@H](CO)C(=O)N[C@@H](CO)C(=O)NCC(=O)N[C@@H](C)C(=O)N1CCC[C@H]1C(=O)N1CCC[C@H]1C(=O)N1CCC[C@H]1C(=O)N[C@@H](CO)C(N)=O)C(C)C [compound 101] (H-Y[Aib]QGTFTSDYSK([AEEA-AEEA-γGlu-C18 diacid])LLDYMMQ[αMeR]DFVQWLLEGGPSSGAPPPS-NH2; N-terminus assumed),increased,65,472%,increased,100,722%,> 7.23 h,improved stability,12,89%,1.18 h,"efficacy in the NASH model, in words [5]: most excellent efficacy; hepatic steatosis score compared to CDA-HFD control, in words [5]: significantly reduced; scores of hepatocytes inflammation and NAS score, in words [5]: statistically reduced; also recorded: most decreased; body weight compared to vehicle-treated control, in words ([5]; 20 nmol/kg s.c. Q2D, 4 weeks): reduce body weight; also recorded: greatest weight loss; liver enzymes and liver steatosis compared to vehicle-treated control, in words ([5]; end of treatment): reduce liver enzymes and liver steatosis significantly; NAS score, in words [6]: statistically decreased more than the level of tirzepatide; hepatic steatosis (histological score), in words [6]: significantly reduced; liver weight, visceral fat weight, liver enzymes, and liver steatosis compared to vehicle-treated control, in words [6]: significantly reduced; stability against FaSSIF/P compared with SEQ ID NO. 77, in words (FaSSIF/P): improved stability"
